# System: NF-kB activation induced by TNFα
# Assay: TNFα Luciferase assay: inhibition of NF-kB activation induced by TNFα in HEK293/NF-kB luciferase cells
# Format: cell-based
# Conditions: Homo sapiens, 4 h, 25 ng/ml of TNF-α for four hours, quadruplicate, read-out: IC50, concentration at which NF-kB activation was reduced by 50%
# Procedure: Determination of Inhibition of NF-kB Activation Induced by TNFα . . . In Vitro Assay
# The ability of a compound disclosed herein to inhibit NFkB activation induced by TNFα was determined using the TNFα Luciferase assay. The HEK293/NF-kB luciferase cell line was obtained by cotransfection of pNFkB-luc vector with pHyg (Panomics, CA, USA) followed by hygromycin selection. HEK293/NFkB Luciferase cells were grown in DMEM medium supplemented with 10% fetal bovine serum, 100 U/ml of penicillin, 100 ng/ml of streptomycin/Fungizone, and 100 μg/ml of hygromycin B as the selecting agent. HEK293 NFkB Luciferase cells were grown in T75 flasks (Nunc™ Cell Culture Treated EasYFlasks™) in a cell culture incubator at 37° C. and 5% CO2.
# Confluent T75 cell culture flasks (approximately 8-10 million of cells per flask) were washed with 10 ml of sterile PBS (without calcium and magnesium) under a biosafety cabinet. After aspiration of the PBS with a sterile glass pipette, the layer of cells (for each T75 flask) was covered with 1 ml of TrypLE™ Express without phenol red (Gibco) at room temperature. After one minute of incubation, HEK293 were mechanically resuspended in the TrypLE by tapping the side of the flask. The cells were then resuspended with 10 ml of pre-warmed complete culture medium and transferred to a conical tube. Cells were centrifuged for 5 minutes at 4000 rpm (1000 g) at room temperature. The cellular pellet was resuspended with 24 ml of pre-warmed cell culture media and […] of cell suspension (approximately 80,000 cells per well) was plated per well in 96-well cell culture plates (Costar #3599, Corning, N.Y., USA) using a multichannel pipette and reversed pipetting to prevent air bubble formation. After plating, the cells were maintained overnight in the cell culture incubator before being treated. For each 96 well cell culture plate, 8 wells were used as “control wells” (only culture medium added) and to 8 wells only TNFα was added. The NF-kB Luciferase reporter cell line was challenged with 25 ng/ml of TNF-α for four hours in the presence and absence (control conditions) of a dose range of the different compounds to be tested. For each compound, a dose range of concentrations was tested in quadruplicate and used to determine an IC50.
# Luciferase activity was monitored using the Luc-Screen® Extended-Glow Luciferase Reporter Gene Assay System by chemoluminescence according to the instruction of the manufacturer (Invitrogen) and a BioTek Synergy HT plate reader (BioTek Instruments, VT, USA).
row,SMILES,IC50 [µM]
1,"O=C(NC(Cc1ccccc1)C(=O)N1CC=CCC1c1cccnc1)c1cccc(F)c1 (centres unmarked) [Compound 19, 3-fluoro-N-(1-oxo-3-phenyl-1-(6-(pyridin-3-yl)-5,6-dihydropyridin-1(2H)-yl)propan-2-yl)benzamide]",5.4
2,"O=C(NC(Cc1ccccc1)C(=O)N1CC=CCC1c1cccnc1)c1cccc(Cl)c1 (centres unmarked) [Compound 18, 3-chloro-N-(1-oxo-3-phenyl-1-(6-(pyridin-3-yl)-5,6-dihydropyridin-1(2H)-yl)propan-2-yl)benzamide]",7
3,"CCOc1ccc(C(=O)N[C@@H](C)C(=O)N2CC=CCC2c2cccnc2)cc1OCC (stereo partly drawn) [Compound 11, 3,4-diethoxy-N-((2S)-1-oxo-1-(6-(pyridin-3-yl)-5,6-dihydropyridin-1(2H)-yl)propan-2-yl)benzamide]",250
4,"C[C@@H](C(=O)N1CC=CC[C@H]1c1cccnc1)N1C(=O)c2ccccc2C1=O [Compound 2, 2-((S)-1-oxo-1-((S)-6-(pyridin-3-yl)-5,6-dihydropyridin-1(2H)-yl)propan-2-yl)isoindoline-1,3-dione]",425
5,"COc1cccc(C(=O)NC(Cc2ccccc2)C(=O)N2CC=CCC2c2cccnc2)c1 (centres unmarked) [Compound 16, 3-methoxy-N-(1-oxo-3-phenyl-1-(6-(pyridin-3-yl)-5,6-dihydropyridin-1 (2H)-yl)propan-2-yl)benzamide]",2

# Second part, the molecule after the results:
row,IC50 [µM],SMILES
1,0.04,"CCCC(=O)Nc1cccc(C(=O)NC(Cc2ccccc2)C(=O)N2CC=CCC2c2cnc3ccccc3c2)c1 (centres unmarked) [Compound 40, 3-butyramido-N-(1-oxo-3-phenyl-1-(2-(quinolin-3-yl)-3,6-dihydropyridin-1(2H)-yl)propan-2-yl)benzamide]"
2,0.216,"CCCCNc1cccc(C(=O)N[C@@H](Cc2ccccc2)C(=O)N2CC=CCC2c2cccnc2)c1 (stereo partly drawn) [Compound 60, 3-(butylamino)-N-((2S)-1-oxo-3-phenyl-1-(6-(pyridin-3-yl)-5,6-dihydropyridin-1(2H)-yl)propan-2-yl)benzamide]"
3,1.6,"COc1cccc(C(=O)N[C@@H](Cc2ccccc2)C(=O)N2CC=CCC2c2cccnc2)c1 (stereo partly drawn) [Compound 35, 3-methoxy-N-((2S)-1-oxo-3-phenyl-1-(6-(pyridin-3-yl)-5,6-dihydropyridin-1(2H)-yl)propan-2-yl)benzamide]"
4,4,"COc1cc(F)cc(C(=O)NC(Cc2ccccc2)C(=O)N2CC=CCC2c2cccnc2)c1 (centres unmarked) [Compound 24, 3-fluoro-5-methoxy-N-(1-oxo-3-phenyl-1-(6-(pyridin-3-yl)-5,6-dihydropyridin-1(2H)-yl)propan-2-yl)benzamide]"
5,0.85,"CCCC(=O)Nc1cccc(C(=O)NC(C)C(=O)N2CC=CCC2c2cnc3ccccc3c2)c1 (centres unmarked) [Compound 68, 3-butyramido-N-(1-oxo-1-(2-(quinolin-3-yl)-3,6-dihydropyridin-1(2H)-yl)propan-2-yl)benzamide]"
6,0.25,"O=C(CCCC[C@@H]1SC[C@@H]2NC(=O)N[C@@H]21)Nc1cccc(C(=O)N[C@@H](Cc2ccccc2)C(=O)N2CC=CCC2c2cccnc2)c1 (stereo partly drawn) [Compound 41, 3-{5-[(3aS,4S,6aR)-2-oxo-hexahydro-1H-thieno[3,4-d]imidazol-4-yl]pentanamido}-N-[(2S)-1-oxo-3-phenyl-1-{1,2,3,6-tetrahydro-[2,3′-bipyridin]-1-yl}propan-2-yl]benzamide]"

# Source: patent US20220081415A1, “Amino Acid Derivatives for the Treatment of Inflammatory Diseases” (The Roskamp Institute, priority 2019, published 2022)
